In patent publication US20260345798A1, “COMPOUNDS AND METHODS OF USE THEREOF” (Virginia Commonwealth University, priority 2023, published 2026):
Residues, ends and D or L forms follow the SMILES beside them.

Assays:
NF-κB = NF-κB (p65) transcription factor assay; format: cell-based, human; conditions: A-375 and C8161.9 melanoma cells
Protocol: FIG. 4C is a histogram showing the NF-κB transcriptional activity of A-375 melanoma cells treated with the indicated doses of IVMT-Rx-3. *: Statistical significance (p<0.05).
FIG. 4D is a histogram showing the NF-κB transcriptional activity of C8161.9 melanoma cells treated with the indicated doses of IVMT-Rx-3. *: Statistical significance (p<0.05).
NF-κB transcription factor assay kits were obtained from Cayman Chemical (Ann Arbor, MI, USA) (Cat #10007889). Nuclear extracts were prepared from cells using the Nuclear and Cytoplasmic Extraction kit (Thermo Fisher Scientific, USA). The samples were then added to pretreated wells for 1 hr. after which they were washed with a wash buffer provided in the kit. The NF-κB antibody was then added with a 1 hr. incubation and after washing the antibody, HRP-conjugated secondary antibody was added for 1 hr. Lastly, a developing solution followed by a stop solution was added. The wells were analyzed with a microplate reader for absorbance at 450 nm.

MMP-2 and MMP-9 = MMP-2 and MMP-9 mRNA by real time qPCR, human melanoma cells; format: cell-based; conditions: FIG. 5A
Source text: FIG. 5A is a series of histograms showing the MMP-2 and MMP-9 mRNA transcriptional activity in established human melanoma cells (A-375, C8161.9, and MeWo cells) and patient-derived early passage human melanoma cells (TPF-19-219, TPF-19-235, and TPF-16-238 cells) treated with IVMT-Rx-3 at varying doses, as determined by qPCR. *: Statistical significance (p<0.05).
Total cellular RNA was extracted using an RNAeasy kit (Qiagen, Germany) as described previously (8,9). All Taqman probes used in this study were obtained from Applied Biosystems (Applied Biosystems, Foster City, CA). Real time PCR was performed using an ABI ViiA7 fast real-time PCR system (Applied Biosystems, Foster City, CA).

[1] = test system: MDA-9/Syntenin: Src signaling pathways in melanoma cell lines; assay: Western blotting of signaling proteins, other melanoma cell lines; format: cell-based, human; conditions: various melanoma cell lines; Western blot FIG. 12
Protocol: FIG. 12 is a Western blot of different signaling molecules as indicated for indicated cell lines treated with IVMT-Rx-3 at varying concentrations.
Western blotting was performed following a standard protocol as described previously (6,8,18,29). Antibodies used in this study were purchased from Cell Signaling Technology (Boston, MA): p-Src (Y416), total Src, matrix metalloproteinase-2 (MMP-2) and matrix metaloproteinase-9 (MMP-9), focal adhesion kinase (FAK), p IKKα/β (S176/180), total IKK, p P38 (T180/Y182) and total P38. MDA-9/Syntenin antibody was obtained from Abnova Inc. (Taiwan). β-actin (Sigma-Aldrich, St. Louis, MO) was used as an endogenous loading control. Fibronectin was purchased from EMD Millipore (Billerica, MA).

B16 melanoma cells = assay: Boyden chamber invasion assay, B16 cells; format: cell-based; conditions: B16 mouse melanoma cells
Protocol: FIG. 13A is a series of photomicrographs of B16 melanoma cells treated with IVMT-Rx-3 at varying concentrations, as well as a histogram showing quantification of the average percentage (of control) of invaded cells. Invasion was assayed using a Boyden chamber. *: Statistical significance (p<0.05).
Invasive phenotype was measured using a Boyden Chamber Assay as described previously (6,8,18). Briefly, 25,000 cells were plated on the upper chamber of the trans well in FBS free media and allowed to invade the Matrigel layer towards the bottom chamber supplemented with complete media. Twenty-four hr. after plating, the invaded cells were fixed and counted under a bright field microscope.

Cc1cc(NC(=O)c2nc3[nH]c4c(c(=O)n3n2)CCC4)c(C)cc1NC(=O)CCOCCC(=O)N[C@H](C(=O)N[C@@H](CC(N)=O)C(=O)N[C@@H](CCC(=O)O)C(=O)N[C@@H](Cc1ccc(O)cc1)C(=O)N[C@@H](Cc1ccc(O)cc1)C(=O)N[C@H](C(=O)O)C(C)C)[C@@H](C)O [IVMT-Rx-3] (HELM PEPTIDE1{[Cc1cc(NC(=O)c2nc3[nH]c4c(c(=O)n3n2)CCC4)c(C)cc1NC(=O)CCOCCC(=O)[*:2]].T.N.E.Y.Y.V}$$$$V2.0)
transcriptional activity of NF-κB (NF-κB): suppressed the transcriptional activity of NF-κB in a dose-dependent manner
MMP-2 and MMP-9 mRNA expression (transcriptional level) (MMP-2 and MMP-9): down regulation
inactivation of MDA-9/Syntenin: Src associated signaling pathways [1]: inactivation of various signaling pathways
invasion of B16 cells (B16 melanoma cells): inhibition of invasion
